This passage reports EC50 results from patent US12110305B2, “Prodrugs of phosphonamide nucleotide analogues and their pharmaceutical use” (priority 2020, dated 2024).

The structures appear in SMILES notation.

In the assay the test system is HIV-1 (IIIB). The assay is described as follows: Antiviral (HIV) assay in MT-4 cells. Format: cell-based. Conditions: Human immunodeficiency virus 1, MT4, 120 h; HIV-1 IIIB in MT-4 cells, 5 days incubation, Cell Titer Glo; average of at least two independent experiments. Here is the method: Example 104: Antiviral (HIV) Assay in MT-4 Cells
Compounds were tested in a high-throughput 384-well assay format for their ability to inhibit the replication of HIV-1 (IIIB) in MT-4 cells. Compounds were serially diluted (1:3) in DMSO on 384-well polypropylene plates and further diluted 200-fold into complete RPMI media (10% FBS, 1% P/S) using the Biotek Micro Flow and Labcyte ECHO acoustic dispenser. Each plate contained up to 8 test compounds, with negative (no drug) and positive (5 μM AZT) controls. MT-4 cells were pre-treated with 10 μL of either RPMI (mock-infected) or a fresh 1:250 dilution of HIV-1 IIIB concentrated virus stock. Infected and uninfected MT-4 cells were further diluted in complete RPMI media and added to each plate using a Micro Flow dispenser. After 5 days incubation in a humidified and temperature-controlled incubator (37° C.), Cell Titer Glo (Promega) was added to the assay plates and chemiluminescence read using an Envision plate-reader. EC50 values were defined as the compound concentration that causes a 50% decrease in luminescence signal and were calculated using a sigmoidal dose-response model to generate curve fits and are shown in Table 1.
Compound `C[C@H](Cn1cnc2c(N)ncnc21)OCP(=O)(NC(C)(C)C(=O)OCc1ccccc1)NC(C)(C)C(=O)OCc1ccccc1` [Example 3, Dibenzyl 2,2′-(((((1-(6-amino-9H-purin-9-yl)propan-2-yl)oxy)methyl)phosphoryl)bis(azanediyl))(R)-bis(2-methylpropanoate)] gave an EC50 of 10 nM.

`CCCCCCOC(=O)C(C)(C)NP(=O)(CO[C@H](C)Cn1cnc2c(N)ncnc21)NC(C)(C)C(=O)O[C@H]1CC[C@H](C(F)(F)F)CC1` (stereo partly drawn) [Example 22, Hexyl 2-((((((R)-1-(6-amino-9H-purin-9-yl)propan-2-yl)oxy)methyl)((2-methyl-1-oxo-1-((trans-4-(trifluoromethyl)cyclohexyl)oxy)propan-2-yl)amino)phosphoryl)amino)-2-methylpropanoate] had an EC50 of 9 nM.

Turning to `CCC[C@H]1CC[C@H](OC(=O)C(C)(C)NP(=O)(CO[C@H](C)Cn2cnc3c(N)ncnc32)NC(C)(C)C(=O)O[C@H]2CC[C@H](CCC)CC2)CC1` [Example 27], a half-maximal response (EC50) required 26 nM.

As for `CCCCCCOC(=O)[C@](C)(CC)NP(=O)(CO[C@H](C)Cn1cnc2c(N)ncnc21)N[C@@](C)(CC)C(=O)OCCCCCC` [Example 10, Dihexyl 2,2′-((((((R)-1-(6-amino-9H-purin-9-yl)propan-2-yl)oxy)methyl)phosphoryl)bis(azanediyl))(2S,2'S)-bis(2-methylbutanoate)], the EC50 was 37 nM.

On to `CCCCCCOC(=O)[C@](C)(Cc1ccccc1)NP(=O)(CO[C@H](C)Cn1cnc2c(N)ncnc21)N[C@@](C)(Cc1ccccc1)C(=O)OCCCCCC` [Example 11, Dihexyl 2,2′-((((((R)-1-(6-amino-9H-purin-9-yl)propan-2-yl)oxy)methyl)phosphoryl)bis(azanediyl))(2S,2'S)-bis(2-methyl-3-phenylpropanoate)], for which it took 17 nM to reach a half-maximal effect (EC50).

Compound `C[C@H](Cn1cnc2c(N)ncnc21)OCP(=O)(NC(C)(C)C(=O)OCCC12CC(C1)C2)NC(C)(C)C(=O)OCCC12CC(C1)C2` [Example 62, Bis(2-(bicyclo[1.1.1]pentan-1-yl)ethyl) 2,2′-(((((1-(6-amino-9H-purin-9-yl)propan-2-yl)oxy)methyl)phosphoryl)bis(azanediyl))(R)-bis(2-methylpropanoate)] registered an EC50 of 7 nM.

In the case of `CCCCCCOC(=O)C(C)(C)NP(=O)(CO[C@H](C)Cn1cnc2c(N)ncnc21)NC1(C(=O)OCCCCCC)CC1` (stereo partly drawn) [Example 20, Hexyl 1-((((((R)-1-(6-amino-9H-purin-9-yl)propan-2-yl)oxy)methyl)((1-(hexyloxy)-2-methyl-1-oxopropan-2-yl)amino)phosphoryl)amino)cyclopropane-1-carboxylate], the EC50 stood at 12 nM.

Consider `C[C@H](Cn1cnc2c(N)ncnc21)OCP(=O)(NC(C)(C)C(=O)O[C@@H]1C[C@@H]2C[C@@H]2C1)NC(C)(C)C(=O)O[C@@H]1C[C@@H]2C[C@@H]2C1` [Example 60, Di((1R,3R,5S)-bicyclo[3.1.0]hexan-3-yl) 2,2′-((((((R)-1-(6-amino-9H-purin-9-yl)propan-2-yl)oxy)methyl)phosphoryl)bis(azanediyl))bis(2-methylpropanoate)], for which the midpoint of the response, the EC50, lay at 3 nM.

Turning to `CCCCCCOC(=O)C(C)(C)NP(=O)(CO[C@H](C)Cn1cnc2c(NC(=O)[C@H]3CCC(=O)O3)ncnc21)NC(C)(C)C(=O)OCCCCCC` [Example 96, Dihexyl 2,2′-((((((R)-1-(6-((R)-5-oxotetrahydrofuran-2-carboxamido)-9H-purin-9-yl)propan-2-yl)oxy)methyl)phosphoryl)bis(azanediyl))bis(2-methylpropanoate)], the EC50 came to 11 nM.

In turn, `CC(C)COC(=O)C(C)(C)NP(=O)(CO[C@H](C)Cn1cnc2c(N)ncnc21)NC(C)(C)C(=O)OCC(C)C` [Example 35, Diisobutyl 2,2′-(((((1-(6-amino-9H-purin-9-yl)propan-2-yl)oxy)methyl)phosphoryl)bis(azanediyl))(R)-bis(2-methylpropanoate)] came in with an EC50 of 5 nM.

`CCCCCCOC(=O)C(C)(C)NP(=O)(CO[C@H](C)Cn1cnc2c(NC(=O)OCCC)ncnc21)NC(C)(C)C(=O)OCCCCCC` [Example 31, Dihexyl 2,2′-(((((1-(6-((propoxycarbonyl)amino)-9H-purin-9-yl)propan-2-yl)oxy)methyl)phosphoryl)bis(azanediyl))(R)-bis(2-methylpropanoate)] returned an EC50 of more than 500 nM.

`CCCCCCCOC(=O)C(C)(C)NP(=O)(CO[C@H](C)Cn1cnc2c(N)ncnc21)NC(C)(C)C(=O)OCCCCCCC` [Example 66, Diheptyl 2,2′-(((((1-(6-amino-9H-purin-9-yl)propan-2-yl)oxy)methyl)phosphoryl)bis(azanediyl))(R)-bis(2-methylpropanoate)] returned an EC50 of 9 nM.

In turn, `CCC(C)(C)CCOC(=O)C(C)(C)NP(=O)(CO[C@H](C)Cn1cnc2c(N)ncnc21)NC(C)(C)C(=O)OCCC(C)(C)CC` [Example 54, Bis(3,3-dimethylpentyl) 2,2′-(((((1-(6-amino-9H-purin-9-yl)propan-2-yl)oxy)methyl)phosphoryl)bis(azanediyl))(R)-bis(2-methylpropanoate)] displayed an EC50 of 4 nM.

With `C[C@H](Cn1cnc2c(N)ncnc21)OCP(=O)(NC(C)(C)C(=O)OCC12CCC(CC1)C2)NC(C)(C)C(=O)OCC12CCC(CC1)C2` [Example 87, Bis(bicyclo[2.2.1]heptan-1-ylmethyl) 2,2′-(((((1-(6-amino-9H-purin-9-yl)propan-2-yl)oxy)methyl)phosphoryl)bis(azanediyl))(R)-bis(2-methylpropanoate)], the EC50 was 6 nM.

In turn, `CCCCCCCCOC(=O)C(C)(C)NP(=O)(CO[C@H](C)Cn1cnc2c(N)ncnc21)NC(C)(C)C(=O)OCCCCCCCC` [Example 39, Dioctyl 2,2′-(((((1-(6-amino-9H-purin-9-yl)propan-2-yl)oxy)methyl)phosphoryl)bis(azanediyl))(R)-bis(2-methylpropanoate)] had an EC50 of 24 nM.

Take `C[C@H](Cn1cnc2c(N)ncnc21)OCP(=O)(NC(C)(C)C(=O)OCC1CCC(F)(F)CC1)NC(C)(C)C(=O)OCC1CCC(F)(F)CC1` [Example 88, Bis((4,4-difluorocyclohexyl)methyl) 2,2′-(((((1-(6-amino-9H-purin-9-yl)propan-2-yl)oxy)methyl)phosphoryl)bis(azanediyl))(R)-bis(2-methylpropanoate)]: a half-maximal effect (EC50) was put at 3 nM.

As to `CCCCCCOC(=O)C(C)(C)NP(=O)(CO[C@H](C)Cn1cnc2c(N)ncnc21)NC(C)(C)C(=O)OCC1(F)CC1` (stereo partly drawn) [Example 78, (1-Fluorocyclopropyl)methyl 2-((((((R)-1-(6-amino-9H-purin-9-yl)propan-2-yl)oxy)methyl)((1-(hexyloxy)-2-methyl-1-oxopropan-2-yl)amino)phosphoryl)amino)-2-methylpropanoate], the EC50 was more than 500 nM.

`CCCCCCOC(=O)C(C)(C)NP(=O)(CO[C@H](C)Cn1cnc2c(N)ncnc21)N[C@]1(C(=O)OCCCCCC)C[C@H]1CC` (stereo partly drawn) [Example 16, Hexyl (1R,2R)-1-((((((R)-1-(6-amino-9H-purin-9-yl)propan-2-yl)oxy)methyl)((1-(hexyloxy)-2-methyl-1-oxopropan-2-yl)amino)phosphoryl)amino)-2-ethylcyclopropane-1-carboxylate] registered an EC50 of 35 nM.

The compound `CCCCCOC(=O)C(C)(C)NP(=O)(CO[C@H](C)Cn1cnc2c(N)ncnc21)NC(C)(C)C(=O)OCCCCC` [Example 4, Dipentyl 2,2′-(((((1-(6-amino-9H-purin-9-yl)propan-2-yl)oxy)methyl)phosphoryl)bis(azanediyl))(R)-bis(2-methylpropanoate)] had an EC50 of 6 nM.

In the case of `C[C@H](Cn1cnc2c(N)ncnc21)OCP(=O)(NC(C)(C)C(=O)O[C@H]1C[C@@H](c2ccccc2)C1)NC(C)(C)C(=O)O[C@H]1C[C@@H](c2ccccc2)C1` [Example 85, Bis((1s,3S)-3-phenylcyclobutyl) 2,2′-((((((R)-1-(6-amino-9H-purin-9-yl)propan-2-yl)oxy)methyl)phosphoryl)bis(azanediyl))bis(2-methylpropanoate)], the midpoint of the response, the EC50, lay at 5 nM.

On to `C[C@H](Cn1cnc2c(N)ncnc21)OCP(=O)(NC(C)(C)C(=O)OC1CC2(CCC2)C1)NC(C)(C)C(=O)OC1CC2(CCC2)C1` (stereo partly drawn) [Example 41, Di(spiro[3.3]heptan-2-yl) 2,2′-(((((1-(6-amino-9H-purin-9-yl)propan-2-yl)oxy)methyl)phosphoryl)bis(azanediyl))(R)-bis(2-methylpropanoate)], for which the EC50 is 3 nM.

The compound `CCCCCCOC(=O)C(C)(C)NP(=O)(CO[C@H](C)Cn1cnc2c(N)ncnc21)NC(C)(C)C(=O)OCC12CC(C1)C2` (stereo partly drawn) [Example 77, Bicyclo[1.1.1]pentan-1-ylmethyl 2-((((((R)-1-(6-amino-9H-purin-9-yl)propan-2-yl)oxy)methyl)((1-(hexyloxy)-2-methyl-1-oxopropan-2-yl)amino)phosphoryl)amino)-2-methylpropanoate] yielded an EC50 of more than 500 nM.

In turn, `C[C@H](Cn1cnc2c(N)ncnc21)OCP(=O)(NC(C)(C)C(=O)O[C@@H](C)C1CCCCC1)NC(C)(C)C(=O)O[C@@H](C)C1CCCCC1` [Example 56, Bis((S)-1-cyclohexylethyl) 2,2′-((((((R)-1-(6-amino-9H-purin-9-yl)propan-2-yl)oxy)methyl)phosphoryl)bis(azanediyl))bis(2-methylpropanoate)] returned an EC50 of 177 nM.
